Source: patent publication US20260317324A1, “BIFUNCTIONAL COMPOUNDS FOR DEGRADING BRAF VIA UBIQUITIN PROTEOSOME PATHWAY” (Nurix Therapeutics, Inc., priority 2023, published 2026)

Assays:
Assay type in all cases: cell-based
BRAF V600E = molecular target: T1, BRAF V600E (Homo sapiens, UniProt P15056, V600E); experiment: BRAF HiBiT degradation assay, C-terminal HiBiT-tagged BRAF V600E A375 cells (clone 1F10), Nano-Glo HiBiT Lytic assay; conditions: for Dmax: A-375
T1 construct: endogenous C-terminal HiBiT fusion tag on BRAF V600E allele; endogenous in cells; host or cells: A375 clone 1F10 (CRISPR-Cas9 knock-in of the HiBiT tag; parental A375 from ATCC)
T1 sequence (P15056 whole entry V600E, the tested form may be a part): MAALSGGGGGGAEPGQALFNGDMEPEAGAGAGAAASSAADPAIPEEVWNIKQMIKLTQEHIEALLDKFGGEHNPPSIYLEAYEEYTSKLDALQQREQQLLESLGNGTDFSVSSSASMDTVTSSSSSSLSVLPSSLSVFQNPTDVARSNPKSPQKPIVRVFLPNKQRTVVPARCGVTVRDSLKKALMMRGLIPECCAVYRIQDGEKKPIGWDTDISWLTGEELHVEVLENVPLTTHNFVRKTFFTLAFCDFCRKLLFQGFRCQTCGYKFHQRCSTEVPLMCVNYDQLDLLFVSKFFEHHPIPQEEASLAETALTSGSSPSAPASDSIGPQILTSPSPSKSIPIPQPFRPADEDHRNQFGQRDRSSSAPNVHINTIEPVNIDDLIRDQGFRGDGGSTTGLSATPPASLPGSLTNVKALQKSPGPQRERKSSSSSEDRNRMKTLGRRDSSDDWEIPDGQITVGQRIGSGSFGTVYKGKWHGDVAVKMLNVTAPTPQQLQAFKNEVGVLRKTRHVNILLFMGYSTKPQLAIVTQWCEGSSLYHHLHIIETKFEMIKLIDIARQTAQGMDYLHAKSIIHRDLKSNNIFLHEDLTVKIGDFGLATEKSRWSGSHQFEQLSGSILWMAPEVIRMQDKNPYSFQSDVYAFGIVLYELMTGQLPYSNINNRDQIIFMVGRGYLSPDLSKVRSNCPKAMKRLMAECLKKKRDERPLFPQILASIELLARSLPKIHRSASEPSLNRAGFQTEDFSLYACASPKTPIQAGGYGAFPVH
Summary of the method: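 Using CRISPR-engineered A375 cells that carry a C-terminal HiBiT tag on endogenous BRAF V600E, remaining protein was quantified by lytic luminescence relative to DMSO-treated cells, with wildtype A375 as the background control. DC50 denotes the concentration giving 50% degradation.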

BRAF G466V = molecular target: T2, BRAF G466V (Homo sapiens, UniProt P15056, G466V); experiment: BRAF HiBiT degradation assay, C-terminal HiBiT-tagged BRAF G466V overexpressed in HCT-116 BRAF−/− cells (clone 8), Nano-Glo HiBiT Lytic assay
T2 construct: Horizon Discovery (HCT-116 BRAF−/− cells); host or cells: HCT-116 BRAF−/− cells, clone 8, lentiviral transduction
T2 sequence (P15056 whole entry G466V): as the sequence (P15056 whole entry V600E, the tested form may be a part) above, with G466V, E600V counted along it
Summary of the method: (§1)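 Degradation assay in HCT-116 BRAF−/− cells carrying lentiviral HiBiT-tagged mutant BRAF. The readout is % protein remaining across 1 μM to 0.01 nM compound, and DC50 marks 50% remaining.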

BRAF G469A = molecular target: T3, BRAF G469A (Homo sapiens, UniProt P15056, G469A); experiment: BRAF HiBiT degradation assay, C-terminal HiBiT-tagged BRAF G469A overexpressed in HCT-116 BRAF−/− cells (clone 34), Nano-Glo HiBiT Lytic assay
T3 construct: Horizon Discovery (HCT-116 BRAF−/− cells); host or cells: HCT-116 BRAF−/− cells, clone 34, lentiviral transduction
T3 sequence (P15056 whole entry G469A): as the sequence (P15056 whole entry V600E, the tested form may be a part) above, with G469A, E600V counted along it
Summary of the method: as §1

BRAF D594G = molecular target: T4, BRAF D594G (Homo sapiens, UniProt P15056, D594G); experiment: BRAF HiBiT degradation assay, C-terminal HiBiT-tagged BRAF D594G overexpressed in HCT-116 BRAF−/− cells (clone 63), Nano-Glo HiBiT Lytic assay
T4 construct: Horizon Discovery (HCT-116 BRAF−/− cells); host or cells: HCT-116 BRAF−/− cells, clone 63, lentiviral transduction
T4 sequence (P15056 whole entry D594G): as the sequence (P15056 whole entry V600E, the tested form may be a part) above, with D594G, E600V counted along it
Summary of the method: as §1

[1] = A375 (BRAF V600E), DC50 at 50%: fitted conc. at Y=50
[2] = A375 (BRAF V600E), percentage protein degraded at maximal compound effect relative to DMSO
[3] = BRAF G466V, DC50 at 50%: fitted conc. at Y=50
[4] = HCT-116, BRAF G466V, percentage protein degraded at maximal compound effect relative to DMSO
[5] = Class 2, BRAF G469A, DC50 at 50%: fitted conc. at Y=50
[6] = HCT-116, Class 2, BRAF G469A, percentage protein degraded at maximal compound effect relative to DMSO
[7] = BRAF D594G, DC50 at 50%: fitted conc. at Y=50
[8] = HCT-116, BRAF D594G, percentage protein degraded at maximal compound effect relative to DMSO
[9] = A375 (BRAF V600E, Class 1), DC50 at 50% degradation
[10] = A375 (BRAF V600E, Class 1), observed Dmax, % protein degraded relative to DMSO control
[11] = BRAF G466V (Class 3), HCT-116 BRAF−/− cells, DC50 at 50% degradation
[12] = BRAF G466V (Class 3), HCT-116 BRAF−/− cells, observed Dmax relative to DMSO control
[13] = BRAF G469A (Class 2), HCT-116 BRAF−/− cells, DC50 at 50% degradation
[14] = BRAF G469A (Class 2), HCT-116 BRAF−/− cells, observed Dmax relative to DMSO control
[15] = BRAF D594G (Class 3), HCT-116 BRAF−/− cells, DC50 at 50% degradation
[16] = BRAF D594G (Class 3), HCT-116 BRAF−/− cells, observed Dmax relative to DMSO control

Row | Structure (SMILES) | DC50 (BRAF V600E; [1]) [nM] | Dmax (BRAF V600E; [2]) [%] | DC50 (BRAF G466V; [3]) [nM] | Dmax (BRAF G466V; [4]) [%] | DC50 (BRAF G469A; [5]) [nM] | Dmax (BRAF G469A; [6]) [%] | DC50 (BRAF D594G; [7]) [nM] | Dmax (BRAF D594G; [8]) [%] | DC50 (BRAF V600E; [9]) [nM] | Dmax (BRAF V600E; [10]) [%] | DC50 (BRAF G466V; [11]) [nM] | Dmax (BRAF G466V; [12]) [%] | DC50 (BRAF G469A; [13]) [nM] | Dmax (BRAF G469A; [14]) [%] | DC50 (BRAF D594G; [15]) [nM] | Dmax (BRAF D594G; [16]) [%]
1 | CCCS(=O)(=O)Nc1cccc(-c2cn(-c3ccc(N4CCN(CC5CCN(c6ccc([C@@H]7CCC(=O)NC7=O)cc6)CC5)CC4)cc3)nc2-c2ccncc2)c1F [Compound 10, N-{3-[1-(4-{4-[(1-{4-[(3S)-2,6-dioxopiperidin-3-yl]phenyl}piperidin-4-yl)methyl]piperazin-1-yl}phenyl)-3-(pyridin-4-yl)-1H-pyrazol-4-yl]-2-fluorophenyl}propane-1-sulfonamide] | 10 to 50 | > 70 | 10 to 50 | 30 to 70 | > 500 | 30 to 70 | > 500 | 30 to 70 |  |  |  |  |  |  |  | 
2 | O=C1CCC(c2ccc(N3CCC(CN4CCN(c5ccc(-n6cc(-c7cc(Cl)cc(NS(=O)(=O)N8CCCC8)c7F)c(-c7ccncc7)n6)cn5)CC4)CC3)nc2)C(=O)N1 (racemic) [Compound 352, Rac-N-{5-chloro-3-[1-(6-{4-[(1-{5-[(3R)-2,6-dioxopiperidin-3-yl]pyridin-2-yl}piperidin-4-yl)methyl]piperazin-1-yl}pyridin-3-yl)-3-(pyridin-4-yl)-1H-pyrazol-4-yl]-2-fluorophenyl}pyrrolidine-1-sulfonamide] |  |  |  |  |  |  |  |  | < 10 | > 70 | < 10 | > 70 | < 10 | > 70 | < 10 | 30 to 70
3 | CCCS(=O)(=O)Nc1cccc(-c2nc(C(C)(C)C)sc2-c2ccnc(Nc3ccc(C4CCN(C(=O)[C@@H]5CCN(c6ccc(C7CCC(=O)NC7=O)cn6)C5)CC4)cc3)n2)c1F (mixture of isomers) [Compound 164, N-[3-(2-tert-butyl-5-{2-[(4-{1-[(3R)-1-{5-[(3RS)-2,6-dioxopiperidin-3-yl]pyridin-2-yl}pyrrolidine-3-carbonyl]piperidin-4-yl}phenyl)amino]pyrimidin-4-yl}-1,3-thiazol-4-yl)-2-fluorophenyl]propane-1-sulfonamide] | < 10 | > 70 | > 500 | 30 to 70 | > 500 | < 30 | > 500 | 30 to 70 |  |  |  |  |  |  |  | 
4 | O=C1CCC(c2ccc(N3CCC(CN4CCN(c5ccc(-n6cc(-c7cc(Cl)cc(NS(=O)(=O)N8CC[C@@H](F)C8)c7F)c(-c7ccncc7)n6)cc5F)CC4)CC3)nc2)C(=O)N1 (mixture of isomers) [Compound 366, (3R)—N-{5-chloro-3-[1-(4-{4-[(1-{5-[(3RS)-2,6-dioxopiperidin-3-yl]pyridin-2-yl}piperidin-4-yl)methyl]piperazin-1-yl}-3-fluorophenyl)-3-(pyridin-4-yl)-1H-pyrazol-4-yl]-2-fluorophenyl}-3-fluoropyrrolidine-1-sulfonamide] |  |  |  |  |  |  |  |  | < 10 | > 70 | < 10 | > 70 | < 10 | > 70 | < 10 | > 70
5 | CCCS(=O)(=O)Nc1cccc(-c2nc(C(C)(C)C)sc2-c2ccnc(NC3CC4(CCN(C(=O)CN5CCC(c6ccc(NC7CCC(=O)NC7=O)cc6)CC5)CC4)C3)n2)c1F (racemic) [Compound 131, Rac-N-[3-(2-tert-butyl-5-{2-[(7-{2-[4-(4-{[(3R)-2,6-dioxopiperidin-3-yl]amino}phenyl)piperidin-1-yl]acetyl}-7-azaspiro[3.5]nonan-2-yl)amino]pyrimidin-4-yl}-1,3-thiazol-4-yl)-2-fluorophenyl]propane-1-sulfonamide] | 10 to 50 | > 70 | > 500 | 30 to 70 | > 500 | < 30 | > 500 | < 30 |  |  |  |  |  |  |  | 
6 | O=C1CC[C@@H](c2ccc(N3CCC(CN4CCN(c5ccc(-n6cc(-c7cc(Cl)cc(NS(=O)(=O)N8CCCC8)c7F)c(-c7ccncc7)n6)cc5)CC4)CC3)cc2F)C(=O)N1 [Compound 384, N-{5-chloro-3-[1-(4-{4-[(1-{4-[(3S)-2,6-dioxopiperidin-3-yl]-3-fluorophenyl}piperidin-4-yl)methyl]piperazin-1-yl}phenyl)-3-(pyridin-4-yl)-1H-pyrazol-4-yl]-2-fluorophenyl}pyrrolidine-1-sulfonamide] |  |  |  |  |  |  |  |  | 10 to 50 | > 70 | 10 to 50 | 30 to 70 | > 500 | 30 to 70 | > 500 | 30 to 70
7 | CCCS(=O)(=O)Nc1cccc(-c2nc(C(C)(C)C)sc2-c2ccnc(Nc3cccc(C4CCN(CC5CCN(c6ccc7c(=O)n(C8CCC(=O)NC8=O)ccc7c6)CC5)CC4)c3)n2)c1F (racemic) [Compound 76, Rac-N-[3-(2-tert-butyl-5-{2-[(3-{1-[(1-{2-[(3R)-2,6-dioxopiperidin-3-yl]-1-oxo-1,2-dihydroisoquinolin-6-yl}piperidin-4-yl)methyl]piperidin-4-yl}phenyl)amino]pyrimidin-4-yl}-1,3-thiazol-4-yl)-2-fluorophenyl]propane-1-sulfonamide] | 10 to 50 | 30 to 70 | > 500 | < 30 | > 500 | < 30 | > 500 | < 30 |  |  |  |  |  |  |  | 
8 | CCCS(=O)(=O)Nc1cccc(-c2nc(C3CCN(CC4CCN(C[C@H]5CC[C@H](Oc6ccc(C7CCC(=O)NC7=O)cc6)CC5)CC4)CC3)sc2-c2ccnc(N)n2)c1F (mixture of isomers) [Compound 225, N-{3-[5-(2-aminopyrimidin-4-yl)-2-{1-[(1-{[(1r,4r)-4-{4-[(3RS)-2,6-dioxopiperidin-3-yl]phenoxy}cyclohexyl]methyl}piperidin-4-yl)methyl]piperidin-4-yl}-1,3-thiazol-4-yl]-2-fluorophenyl}propane-1-sulfonamide] | 10 to 50 | > 70 | > 500 | 30 to 70 | > 500 | < 30 | > 500 | 30 to 70 |  |  |  |  |  |  |  | 
9 | O=C1CCN(c2ccc(N3CCC(CN4CCN(c5ccc(-n6cc(-c7cc(F)cc(NS(=O)(=O)N8CCCC8)c7F)c(-c7ccncc7)n6)cc5)CC4)CC3)cc2)C(=O)N1 [Compound 300, N-[3-(1-{4-[4-({1-[4-(2,4-dioxo-1,3-diazinan-1-yl)phenyl]piperidin-4-yl}methyl)piperazin-1-yl]phenyl}-3-(pyridin-4-yl)-1H-pyrazol-4-yl)-2,5-difluorophenyl]pyrrolidine-1-sulfonamide] |  |  |  |  |  |  |  |  | 10 to 50 | > 70 | < 10 | > 70 | 50 to 500 | 30 to 70 | < 10 | 30 to 70
10 | O=C1CCN(c2ccc(N3CCC(CN4CCN(c5ccc(-n6cc(-c7cc(Cl)cc(NS(=O)(=O)N8CC(F)C8)c7F)c(-c7ccncc7)n6)c(F)c5)CC4)CC3)cc2)C(=O)N1 [Compound 339, N-[5-chloro-3-(1-{4-[4-({1-[4-(2,4-dioxo-1,3-diazinan-1-yl)phenyl]piperidin-4-yl}methyl)piperazin-1-yl]-2-fluorophenyl}-3-(pyridin-4-yl)-1H-pyrazol-4-yl)-2-fluorophenyl]-3-fluoroazetidine-1-sulfonamide] |  |  |  |  |  |  |  |  | < 10 | > 70 | < 10 | 30 to 70 | > 500 | < 30 | 10 to 50 | 30 to 70
